Measured values: the supplement of paper PMC13380429

Legend:
Details in all cases: 72 h
Calu-3 [1] = assay: drug sensitivity score (DSS) for viability; higher = more toxic; extreme values may be limits of the assay
Vero E6 [2] = assay: as above
Caco-2 [3] = assay: as above
HepG2 [4] = assay: as above
U2OS [5] = assay: as above
Calu-3 [6] = assay: cell viability relative to DMSO; higher = less toxic
Vero E6 [7] = assay: as above
Caco-2 [8] = assay: as above
HepG2 [9] = assay: as above
U2OS [10] = assay: as above
Calu-3 [11] = assay: relative viability EC50 (midpoint between 100% and the lowest measured viability); higher = less toxic
Vero E6 [12] = assay: as above
HepG2 [13] = assay: as above
U2OS [14] = assay: as above
Caco-2 [15] = assay: as above

## CC(C)(O)C(=O)N1CCN(c2ccc(C(F)(F)F)c(C3=C(c4c[nH]c5ccccc45)C(=O)NC3=O)c2)CC1
Calu-3 [1]
  drug sensitivity score: 2.1
Vero E6 [2]
  drug sensitivity score: 3.6
Caco-2 [3]
  drug sensitivity score: 2.2
HepG2 [4]
  drug sensitivity score: 4.6
U2OS [5]
  drug sensitivity score: 3.3
Calu-3 [6]; 1 nM
  cell viability: 102%
Calu-3 [6]; 10 nM
  cell viability: 93.2%
Calu-3 [6]; 100 nM
  cell viability: 106%
Calu-3 [6]; 1000 nM
  cell viability: 117%
Calu-3 [6]; 10000 nM
  cell viability: 46.2%
Vero E6 [7]; 1 nM
  cell viability: 102%
Vero E6 [7]; 10 nM
  cell viability: 97.7%
Vero E6 [7]; 100 nM
  cell viability: 96.9%
Vero E6 [7]; 1000 nM
  cell viability: 104%
Vero E6 [7]; 10000 nM
  cell viability: 29.5%
Caco-2 [8]; 1 nM
  cell viability: 92.7%
Caco-2 [8]; 10 nM
  cell viability: 95.5%
Caco-2 [8]; 100 nM
  cell viability: 95.7%
Caco-2 [8]; 1000 nM
  cell viability: 105%
Caco-2 [8]; 10000 nM
  cell viability: 51.1%
HepG2 [9]; 1 nM
  cell viability: 101%
HepG2 [9]; 10 nM
  cell viability: 96.5%
HepG2 [9]; 100 nM
  cell viability: 103%
HepG2 [9]; 1000 nM
  cell viability: 107%
HepG2 [9]; 10000 nM
  cell viability: 7.5%
U2OS [10]; 1 nM
  cell viability: 99.6%
U2OS [10]; 10 nM
  cell viability: 95.8%
U2OS [10]; 100 nM
  cell viability: 103%
U2OS [10]; 1000 nM
  cell viability: 102%
U2OS [10]; 10000 nM
  cell viability: 35.6%
Calu-3 [11]
  relative viability EC50: 4.17 µM
Vero E6 [12]
  relative viability EC50: 3.46 µM
HepG2 [13]
  relative viability EC50: 3.57 µM
U2OS [14]
  relative viability EC50: 3.35 µM

## CCCCn1ccc(N2CCC(c3ccccc3)CC2)c(Cl)c1=O
Calu-3 [1]
  drug sensitivity score: 0
Vero E6 [2]
  drug sensitivity score: 0
Caco-2 [3]
  drug sensitivity score: 1
HepG2 [4]
  drug sensitivity score: 0.4
U2OS [5]
  drug sensitivity score: 0
Calu-3 [6]; 1 nM
  cell viability: 107%
Calu-3 [6]; 10 nM
  cell viability: 96.7%
Calu-3 [6]; 100 nM
  cell viability: 87%
Calu-3 [6]; 1000 nM
  cell viability: 99.3%
Calu-3 [6]; 10000 nM
  cell viability: 89.8%
Vero E6 [7]; 1 nM
  cell viability: 106%
Vero E6 [7]; 10 nM
  cell viability: 106%
Vero E6 [7]; 100 nM
  cell viability: 104%
Vero E6 [7]; 1000 nM
  cell viability: 106%
Vero E6 [7]; 10000 nM
  cell viability: 97.2%
Caco-2 [8]; 1 nM
  cell viability: 102%
Caco-2 [8]; 10 nM
  cell viability: 103%
Caco-2 [8]; 100 nM
  cell viability: 87.7%
Caco-2 [8]; 1000 nM
  cell viability: 111%
Caco-2 [8]; 10000 nM
  cell viability: 68.4%
HepG2 [9]; 1 nM
  cell viability: 99.2%
HepG2 [9]; 10 nM
  cell viability: 101%
HepG2 [9]; 100 nM
  cell viability: 86.7%
HepG2 [9]; 1000 nM
  cell viability: 108%
HepG2 [9]; 10000 nM
  cell viability: 78.9%
U2OS [10]; 1 nM
  cell viability: 100%
U2OS [10]; 10 nM
  cell viability: 98.7%
U2OS [10]; 100 nM
  cell viability: 100%
U2OS [10]; 1000 nM
  cell viability: 98.8%
U2OS [10]; 10000 nM
  cell viability: 99%
Calu-3 [11]
  relative viability EC50: > 10 µM
Vero E6 [12]
  relative viability EC50: > 10 µM
HepG2 [13]
  relative viability EC50: > 10 µM
U2OS [14]
  relative viability EC50: > 10 µM

## CCc1ccc(/C=C2/SC(=S)NC2=O)cc1
Calu-3 [1]
  drug sensitivity score: 0
Caco-2 [3]
  drug sensitivity score: 0
HepG2 [4]
  drug sensitivity score: 0
U2OS [5]
  drug sensitivity score: 0
Calu-3 [6]; 1 nM
  cell viability: 101%
Calu-3 [6]; 10 nM
  cell viability: 87%
Calu-3 [6]; 100 nM
  cell viability: 97.9%
Calu-3 [6]; 1000 nM
  cell viability: 93.4%
Calu-3 [6]; 10000 nM
  cell viability: 103%
Caco-2 [8]; 1 nM
  cell viability: 102%
Caco-2 [8]; 10 nM
  cell viability: 85.3%
Caco-2 [8]; 100 nM
  cell viability: 101%
Caco-2 [8]; 1000 nM
  cell viability: 108%
Caco-2 [8]; 10000 nM
  cell viability: 93.3%
HepG2 [9]; 1 nM
  cell viability: 98.2%
HepG2 [9]; 10 nM
  cell viability: 106%
HepG2 [9]; 100 nM
  cell viability: 93.7%
HepG2 [9]; 1000 nM
  cell viability: 95.9%
HepG2 [9]; 10000 nM
  cell viability: 95.6%
U2OS [10]; 1 nM
  cell viability: 97.9%
U2OS [10]; 10 nM
  cell viability: 95.9%
U2OS [10]; 100 nM
  cell viability: 99.8%
U2OS [10]; 1000 nM
  cell viability: 94.9%
U2OS [10]; 10000 nM
  cell viability: 96.7%
Calu-3 [11]
  relative viability EC50: > 10 µM
Caco-2 [15]
  relative viability EC50: > 10 µM
HepG2 [13]
  relative viability EC50: > 10 µM
U2OS [14]
  relative viability EC50: > 10 µM

## CN(C)C1CCN(C(=O)c2ccc(NC(=O)Nc3ccc(-c4nc(N5CCOCC5)nc(N5CCOCC5)n4)cc3)cc2)CC1
Calu-3 [1]
  drug sensitivity score: 8.3
Vero E6 [2]
  drug sensitivity score: 0
Caco-2 [3]
  drug sensitivity score: 3.3
HepG2 [4]
  drug sensitivity score: 0.3
U2OS [5]
  drug sensitivity score: 1.5
Calu-3 [6]; 1 nM
  cell viability: 105%
Calu-3 [6]; 10 nM
  cell viability: 90.5%
Calu-3 [6]; 100 nM
  cell viability: 87.2%
Calu-3 [6]; 1000 nM
  cell viability: 65.6%
Calu-3 [6]; 10000 nM
  cell viability: 35.5%
Vero E6 [7]; 1 nM
  cell viability: 94.2%
Vero E6 [7]; 10 nM
  cell viability: 100%
Vero E6 [7]; 100 nM
  cell viability: 89.3%
Vero E6 [7]; 1000 nM
  cell viability: 90.7%
Vero E6 [7]; 10000 nM
  cell viability: 107%
Caco-2 [8]; 1 nM
  cell viability: 93.8%
Caco-2 [8]; 10 nM
  cell viability: 93.7%
Caco-2 [8]; 100 nM
  cell viability: 102%
Caco-2 [8]; 1000 nM
  cell viability: 87.1%
Caco-2 [8]; 10000 nM
  cell viability: 66.7%
HepG2 [9]; 1 nM
  cell viability: 98.5%
HepG2 [9]; 10 nM
  cell viability: 108%
HepG2 [9]; 100 nM
  cell viability: 95.8%
HepG2 [9]; 1000 nM
  cell viability: 100%
HepG2 [9]; 10000 nM
  cell viability: 84.3%
U2OS [10]; 1 nM
  cell viability: 97.7%
U2OS [10]; 10 nM
  cell viability: 97.8%
U2OS [10]; 100 nM
  cell viability: 100%
U2OS [10]; 1000 nM
  cell viability: 92.1%
U2OS [10]; 10000 nM
  cell viability: 79.7%
Calu-3 [11]
  relative viability EC50: 0.635 µM
Vero E6 [12]
  relative viability EC50: > 10 µM
HepG2 [13]
  relative viability EC50: > 10 µM
U2OS [14]
  relative viability EC50: > 10 µM

## COc1ccc(S(=O)(=O)N2CCCN(S(=O)(=O)c3ccc(OC)c(OC)c3)CC2)cc1OC
Calu-3 [1]
  drug sensitivity score: 0
Caco-2 [3]
  drug sensitivity score: 0
HepG2 [4]
  drug sensitivity score: 0
U2OS [5]
  drug sensitivity score: 0
Calu-3 [6]; 1 nM
  cell viability: 89.1%
Calu-3 [6]; 10 nM
  cell viability: 84.7%
Calu-3 [6]; 100 nM
  cell viability: 102%
Calu-3 [6]; 1000 nM
  cell viability: 94.4%
Calu-3 [6]; 10000 nM
  cell viability: 92.1%
Caco-2 [8]; 1 nM
  cell viability: 89.4%
Caco-2 [8]; 10 nM
  cell viability: 90.5%
Caco-2 [8]; 100 nM
  cell viability: 94.5%
Caco-2 [8]; 1000 nM
  cell viability: 102%
Caco-2 [8]; 10000 nM
  cell viability: 108%
HepG2 [9]; 1 nM
  cell viability: 99.3%
HepG2 [9]; 10 nM
  cell viability: 100%
HepG2 [9]; 100 nM
  cell viability: 79.4%
HepG2 [9]; 1000 nM
  cell viability: 98.7%
HepG2 [9]; 10000 nM
  cell viability: 110%
U2OS [10]; 1 nM
  cell viability: 98.6%
U2OS [10]; 10 nM
  cell viability: 96.1%
U2OS [10]; 100 nM
  cell viability: 99.3%
U2OS [10]; 1000 nM
  cell viability: 100%
U2OS [10]; 10000 nM
  cell viability: 97%
Calu-3 [11]
  relative viability EC50: > 10 µM
Caco-2 [15]
  relative viability EC50: > 10 µM
HepG2 [13]
  relative viability EC50: > 10 µM
U2OS [14]
  relative viability EC50: > 10 µM

## CC#C[C@@H](CC(=O)O)c1ccc(OCc2cccc(-c3ccc(C(F)(F)F)cc3)c2)cc1 [AMG-837]
Calu-3 [1]
  drug sensitivity score: 0
Vero E6 [2]
  drug sensitivity score: 0
Caco-2 [3]
  drug sensitivity score: 0
U2OS [5]
  drug sensitivity score: 0
Calu-3 [6]; 1 nM
  cell viability: 104%
Calu-3 [6]; 10 nM
  cell viability: 104%
Calu-3 [6]; 100 nM
  cell viability: 110%
Calu-3 [6]; 1000 nM
  cell viability: 92.7%
Calu-3 [6]; 10000 nM
  cell viability: 94.9%
Vero E6 [7]; 1 nM
  cell viability: 97.5%
Vero E6 [7]; 10 nM
  cell viability: 100%
Vero E6 [7]; 100 nM
  cell viability: 95.8%
Vero E6 [7]; 1000 nM
  cell viability: 102%
Vero E6 [7]; 10000 nM
  cell viability: 97.4%
Caco-2 [8]; 1 nM
  cell viability: 102%
Caco-2 [8]; 10 nM
  cell viability: 95.3%
Caco-2 [8]; 100 nM
  cell viability: 97.7%
Caco-2 [8]; 1000 nM
  cell viability: 94.9%
Caco-2 [8]; 10000 nM
  cell viability: 93.2%
U2OS [10]; 1 nM
  cell viability: 101%
U2OS [10]; 10 nM
  cell viability: 94.7%
U2OS [10]; 100 nM
  cell viability: 99.9%
U2OS [10]; 1000 nM
  cell viability: 95%
U2OS [10]; 10000 nM
  cell viability: 93.9%
Calu-3 [11]
  relative viability EC50: > 10 µM
Vero E6 [12]
  relative viability EC50: > 10 µM
Caco-2 [15]
  relative viability EC50: > 10 µM
U2OS [14]
  relative viability EC50: > 10 µM

## O=C(Nc1c[nH]nc1-c1nc2ccc(CN3CCOCC3)cc2[nH]1)NC1CC1 [AT-9283]
Calu-3 [1]
  drug sensitivity score: 8
Vero E6 [2]
  drug sensitivity score: 3.1
Caco-2 [3]
  drug sensitivity score: 2
HepG2 [4]
  drug sensitivity score: 10.8
U2OS [5]
  drug sensitivity score: 8.8
Calu-3 [6]; 1 nM
  cell viability: 107%
Calu-3 [6]; 10 nM
  cell viability: 96.9%
Calu-3 [6]; 100 nM
  cell viability: 85.9%
Calu-3 [6]; 1000 nM
  cell viability: 65.4%
Calu-3 [6]; 10000 nM
  cell viability: 43.6%
Vero E6 [7]; 1 nM
  cell viability: 99.9%
Vero E6 [7]; 10 nM
  cell viability: 93.1%
Vero E6 [7]; 100 nM
  cell viability: 90.4%
Vero E6 [7]; 1000 nM
  cell viability: 86.7%
Vero E6 [7]; 10000 nM
  cell viability: 66.7%
Caco-2 [8]; 1 nM
  cell viability: 87.1%
Caco-2 [8]; 10 nM
  cell viability: 102%
Caco-2 [8]; 100 nM
  cell viability: 90.9%
Caco-2 [8]; 1000 nM
  cell viability: 90.7%
Caco-2 [8]; 10000 nM
  cell viability: 71.8%
HepG2 [9]; 1 nM
  cell viability: 96.6%
HepG2 [9]; 10 nM
  cell viability: 97.7%
HepG2 [9]; 100 nM
  cell viability: 82.4%
HepG2 [9]; 1000 nM
  cell viability: 57.3%
HepG2 [9]; 10000 nM
  cell viability: 5.8%
U2OS [10]; 1 nM
  cell viability: 98.2%
U2OS [10]; 10 nM
  cell viability: 97.7%
U2OS [10]; 100 nM
  cell viability: 80.6%
U2OS [10]; 1000 nM
  cell viability: 74.7%
U2OS [10]; 10000 nM
  cell viability: 1.1%
Calu-3 [11]
  relative viability EC50: 0.461 µM
HepG2 [13]
  relative viability EC50: 0.93 µM
U2OS [14]
  relative viability EC50: 1.66 µM
